Test results reported in the NIST ThermoML archive (doi:10.1016/j.jct.2011.01.014).

Assay: xn = mol fraction of the nth substance listed
Conditions: 101 kPa, Liquid; for speed of sound: sound velocity cell; for mass density: Vibrating tube method

CC(=O)[O-].[NH3+]CCO [2-hydroxyethylammonium acetate] + CCO
Conditions | mass density [kg/m3] | speed of sound [m/s]
305.65 K, x1 = 0.0497 | – | 1161.8
305.65 K, x1 = 0.101 | – | 1201.5
305.65 K, x1 = 0.201 | – | 1273.6
305.65 K, x1 = 0.3009 | – | 1359.9
305.65 K, x1 = 0.4057 | – | 1421.5
305.65 K, x1 = 0.4946 | – | 1483
305.65 K, x1 = 0.603 | – | 1556.5
305.65 K, x1 = 0.6765 | – | 1601.8
305.65 K, x1 = 0.7918 | – | 1660.8
305.65 K, x1 = 0.8825 | – | 1708.2
305.65 K, x1 = 0.9539 | – | 1748.7
305.65 K, x1 = 1 | – | 1773.4
308.15 K, x1 = 0.0497 | 813.395 | 1153.6
308.15 K, x1 = 0.101 | 846.797 | 1193.5
308.15 K, x1 = 0.201 | 902.073 | 1266
308.15 K, x1 = 0.3009 | 949.706 | 1352.8
308.15 K, x1 = 0.4057 | 992.164 | 1414.7
308.15 K, x1 = 0.4946 | 1023.13 | 1476.4
308.15 K, x1 = 0.603 | 1056.17 | 1550.2
308.15 K, x1 = 0.6765 | 1076.23 | 1595.6
308.15 K, x1 = 0.7918 | 1104.25 | 1654.6
308.15 K, x1 = 0.8825 | 1123.77 | 1702.2
308.15 K, x1 = 0.9539 | 1136.79 | 1742.2
308.15 K, x1 = 1 | 1143.39 | 1767.9
310.65 K, x1 = 0.0497 | 811.269 | 1145.4
310.65 K, x1 = 0.101 | 844.752 | 1185.5
310.65 K, x1 = 0.201 | 900.153 | 1258.5
310.65 K, x1 = 0.3009 | 947.892 | 1345.7
310.65 K, x1 = 0.4057 | 990.442 | 1407.8
310.65 K, x1 = 0.4946 | 1021.48 | 1469.7
310.65 K, x1 = 0.603 | 1054.53 | 1544
310.65 K, x1 = 0.6765 | 1074.71 | 1589.6
310.65 K, x1 = 0.7918 | 1102.76 | 1648.5
310.65 K, x1 = 0.8825 | 1122.31 | 1696.2
310.65 K, x1 = 0.9539 | 1135.37 | 1735.9
310.65 K, x1 = 1 | 1141.96 | 1762.5
313.15 K, x1 = 0.0497 | 809.131 | 1137.2
313.15 K, x1 = 0.101 | 842.694 | 1177.6
313.15 K, x1 = 0.201 | 898.225 | 1251
313.15 K, x1 = 0.3009 | 946.069 | 1338.7
313.15 K, x1 = 0.4057 | 988.723 | 1401
313.15 K, x1 = 0.4946 | 1019.83 | 1463.2
313.15 K, x1 = 0.603 | 1052.87 | 1537.7
313.15 K, x1 = 0.6765 | 1073.17 | 1583.5
313.15 K, x1 = 0.7918 | 1101.31 | 1642.5
313.15 K, x1 = 0.8825 | 1120.85 | 1690.2
313.15 K, x1 = 0.9539 | 1133.96 | 1729.9
313.15 K, x1 = 1 | 1140.55 | 1757.2
315.65 K, x1 = 0.0497 | 806.984 | 1129.1
315.65 K, x1 = 0.101 | 840.628 | 1169.7
315.65 K, x1 = 0.201 | 896.29 | 1243.5
315.65 K, x1 = 0.3009 | 944.245 | 1331.6
315.65 K, x1 = 0.4057 | 986.994 | 1394.2
315.65 K, x1 = 0.4946 | 1018.18 | 1456.6
315.65 K, x1 = 0.603 | 1051.28 | 1531.4
315.65 K, x1 = 0.6765 | 1071.63 | 1577.4
315.65 K, x1 = 0.7918 | 1099.86 | 1636.6
315.65 K, x1 = 0.8825 | 1119.38 | 1684.4
315.65 K, x1 = 0.9539 | 1132.54 | 1723.9
315.65 K, x1 = 1 | 1139.18 | 1751.9
318.15 K, x1 = 0.0497 | 804.825 | 1120.9
318.15 K, x1 = 0.101 | 838.551 | 1161.8
318.15 K, x1 = 0.201 | 894.347 | 1235.9
318.15 K, x1 = 0.3009 | 942.413 | 1324.5
318.15 K, x1 = 0.4057 | 985.266 | 1387.3
318.15 K, x1 = 0.4946 | 1016.52 | 1450
318.15 K, x1 = 0.603 | 1049.69 | 1525.2
318.15 K, x1 = 0.6765 | 1070.09 | 1571.3
318.15 K, x1 = 0.7918 | 1098.4 | 1630.7
318.15 K, x1 = 0.8825 | 1117.9 | 1678.6
318.15 K, x1 = 0.9539 | 1131.12 | 1718.1
318.15 K, x1 = 1 | 1137.82 | 1746.5
320.65 K, x1 = 0.0497 | 802.647 | 1112.8
320.65 K, x1 = 0.101 | 836.46 | 1153.9
320.65 K, x1 = 0.201 | 892.395 | 1228.4
320.65 K, x1 = 0.3009 | 940.573 | 1317.5
320.65 K, x1 = 0.4057 | 983.53 | 1380.5
320.65 K, x1 = 0.4946 | 1014.85 | 1443.5
320.65 K, x1 = 0.603 | 1048.1 | 1519
320.65 K, x1 = 0.6765 | 1068.53 | 1565.3
320.65 K, x1 = 0.7918 | 1096.93 | 1624.8
320.65 K, x1 = 0.8825 | 1116.49 | 1672.8
320.65 K, x1 = 0.9539 | 1129.69 | 1712.4
320.65 K, x1 = 1 | 1136.45 | 1741.3
323.15 K, x1 = 0.0497 | 800.468 | 1104.7
323.15 K, x1 = 0.101 | 834.368 | 1146
323.15 K, x1 = 0.201 | 890.443 | 1221
323.15 K, x1 = 0.3009 | 938.735 | 1310.5
323.15 K, x1 = 0.4057 | 981.801 | 1373.7
323.15 K, x1 = 0.4946 | 1013.19 | 1437
323.15 K, x1 = 0.603 | 1046.54 | 1512.7
323.15 K, x1 = 0.6765 | 1066.98 | 1559.4
323.15 K, x1 = 0.7918 | 1095.47 | 1618.9
323.15 K, x1 = 0.8825 | 1115.06 | 1667.2
323.15 K, x1 = 0.9539 | 1128.27 | 1706.7
323.15 K, x1 = 1 | 1135.08 | 1736
